According to patent US7601738B2, “Excitatory amino acid receptor antagonists” (Eli Lilly and Company, priority 2001, dated 2009):

Cl.O=C(O)c1cc2ccccc2cc1S[C@H]1CC[C@H]2CN[C@H](C(=O)O)C[C@H]2C1
melting point: > 183 °C (dec.)

Cc1ccc(C(=O)O)c(S[C@H]2CC[C@H]3CN[C@H](C(=O)O)C[C@H]3C2)c1.Cl
melting point: > 177 °C (dec.)
